# Laboratory results published in US5304474A, “Hydrophobic peptide esters and amides” (Board of Regents, The University of Texas System, priority 1991, dated 1994).
# What was measured:
# [1] = system: renal cell carcinoma line, Currie; assay: 51Cr release toxicity assay
# Procedure: (§2) In some experiments, toxicity of Leu-Leu-OMe for a variety of cell populations was assessed by ^51 Cr release In assays where cells obtained from suspension culture were to be used, cells were labeled with Na2^51 CrO4 (ICN, Plainview, N.Y.) for 60-90 minutes at 37° C. and then washed three times. Cells were then suspended in PBS (2.5×10^6 /ml) and incubated in microtiter plates, 50 microL/well with indicated concentrations of Leu-Leu-OMe for 15 minutes at room temperature. […] Following ^51 Cr labeling, wells were thoroughly washed and varying concentrations of Leu-Leu-OMe added in 50 microL PBS and the plates incubated for 15 minutes at room temperature.
# (§3) Following such initial serum-free incubations, 200 microL/well of medium RPMI containing 10% FBS were added and the plates incubated for another 4 hours prior to removal of 100 microliters of supernatant. Radioactivity in the supernatant was measured in an auto-gamma scintillation spectrometer (Packard Instrument Co., Downers Grove, Ill.). The percent specific release was calculated from the formula: [formula] in which maximal release refers to cpm obtained in wells containing 50% lysing agent (American Scientific Products, McGraw Park, Ill.) and spontaneous release refers to cpm released by cells incubated in control medium in the absence of Leu-Leu-OMe or the lysing agent.
# [2] = Activity and appearance of mice post-injection; format: in vivo, C3H/HeJ mice; conditions: 15-30 minutes post-injection, about 1×10^-3 moles per kg tail-vein
# Procedure: Leu-Leu-OMe or Leu-Phe-OMe were suspended in PBS, pH 7.4. Then individual C3H/HeJ mice (25 gram size) were administered by tail-vein injection either 2.5×10^-5 moles (6.5 mg) of Leu-Leu-OMe, 2.5×10^-5 moles (7.1 mg) Leu-Phe-OMe, or an equal volume of the PBS diluent, this dose being about 1×10^-3 moles per kg. […] Subsequent to this quiescent period no difference in activity or appearance in the mice was noted. Two hours post-injection, the mice were sacrificed and their spleen cells were assayed for NK function in a standard 4 hour assay against YAC-1 tumor targets. In all mice, total cell recovery ranged […] spleen cells per animal. […] Thus, Leu-Leu-OMe or Leu-Phe-OMe caused a greater than 75% decrease in splenic lytic activity against YAC-1 tumor targets.
# [3] = system: [^3 H]Leu-Leu-OMe uptake by PBL (facilitated transport); assay: Competitive inhibition of [3H]Leu-Leu-OMe uptake; format: cell-based, human
# Procedure: (§1) Human peripheral blood lymphocytes (PBL) were incubated in the presence of [^3 H]labeled Leu-Leu-OMe at 22° C. for varying lengths of time. The incubation mixture was then centrifuged through silicone oil to separate the cells from any unbound or non-internalized [^3 HLeu-Leu-OMe. […] At 37° C., levels of [^3 H]Leu-Leu-OMe accumulation by PBL were increased above those seen at 22° C. (see Table 4).
# [4] = system: spleen cells; assay: Donor cell viability and subsets after treatment; format: cell-based, mice
# From the text: Female, 8-16-wk-old, C57BL/6J (B6) and (C57BL/6J x DBA/2J)F1 mice (B6D2F1) were used as donors and recipients, respectively. For some experiments B6 donors were […] 70×10^6 cells/ml either in phosphate-buffered saline (PBS) or in Leu-Leu-OMe dissolved in PBS. Leu-Leu-OMe was synthesized from leucyl-leucine as previously described (10). […]
# Immediately after treatment with Leu-Leu-OMe, there was less than a 5% loss of viable donor cells.
# [5] = system: human umbilical vein endothelial cells; assay: 51Cr release toxicity assay
# Procedure: as §2, §3
# [6] = system: CD16(+), CD4(+), CD8(+) lymphocytes; assay: Lymphocyte subsets of PBL stained with alpha-CD16, alpha-CD4, alpha-CD8; format: cell-based, human
# From the text: Thus, as previously reported (see prior Examples and J. Immunol. 1986; 136:1038-1048), exposure of human PBL to 250 micro-M Leu-Leu-OMe results in loss of all CD16(+) NK cells, and the majority of CD8(+) T cells and thereby results in reciprocal enrichment of the CD4(+) T cell subset which is largely Leu-Leu-OMe resistant (see Table 13).
# [7] = system: peripheral blood lymphocytes (PBL); assay: [3H]Leu-Leu-OMe uptake/binding by lymphocytes; format: in vitro ADME, human
# Procedure: as §1
# [8] = system: B6 spleen cells (NK, allospecific cytotoxic T cells); conditions: 250 micro-M (ref. 12); cited from earlier work
# [9] = system: B Cells; assay: Leu-Leu-OMe sensitivity of cell type; format: cell-based, human
# [10] = molecular target: dipeptidyl peptidase I (DPPI) (Bos taurus, UniProt Q3ZCJ8); assay: Dipeptidyl peptidase I catalyzed lysis of human RBC; format: cell-based, bovine; conditions: FIG. 12, FIG. 13
# Procedure: The following experiments were carried out to determine whether DPPI could generate a lytic product from Leu-Leu-OMe. In the experiment detailed in FIG. 12, ^51 Cr-labeled human erythrocytes (RBC) were incubated with varying concentrations of Leu-Leu-OMe alone or in the presence of purified bovine DPPI.
# In the experiments detailed in FIG. 13, ^51 Cr-labeled RBC's were exposed to various dipeptide esters or amides in the presence or absence of purified DPPI. […] The first observation is probably related to the inability of this enzyme to catalyze transpeptidation of peptide esters containing D-stereoisomers of amino acids. The latter observations are likely to be related to the fact that polymers of Ser-Leu or Leu-Tyr are not hydrophobic and therefore unlikely to enter and disrupt cell membranes.
# [11] = following 3-h incubation at 37° C.
# Chain of dipeptidyl peptidase I (DPPI) (Q3ZCJ8 231-394 limits assumed): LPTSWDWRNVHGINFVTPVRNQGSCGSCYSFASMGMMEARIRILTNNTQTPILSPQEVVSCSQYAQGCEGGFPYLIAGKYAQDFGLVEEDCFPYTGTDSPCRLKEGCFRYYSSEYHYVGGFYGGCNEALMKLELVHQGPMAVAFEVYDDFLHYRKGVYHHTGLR
# Chain of dipeptidyl peptidase I (DPPI) (Q3ZCJ8 25-134 limits assumed): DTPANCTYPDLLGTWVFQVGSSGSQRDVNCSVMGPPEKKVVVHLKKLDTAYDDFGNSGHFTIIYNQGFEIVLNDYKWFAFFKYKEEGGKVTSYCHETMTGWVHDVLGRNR
# Chain of dipeptidyl peptidase I (DPPI) (Q3ZCJ8 395-463 limits assumed): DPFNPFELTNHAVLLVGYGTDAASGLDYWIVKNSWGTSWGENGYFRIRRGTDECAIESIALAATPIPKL
smiles,measurement,setting,value
"COC(=O)[C@H](CC(C)C)NC(=O)[C@@H](N)CC(C)C [Leu-Leu-OMe, L-leucyl-L-leucine methyl ester]",51Cr release,[1],no significant Leu-Leu-OMe induced ^51 Cr release
same,subsequent proliferative capacity,[1]; 500 micromolar,had no discernible effect on subsequent proliferative capacity
same,Leu--Leu--OMe Sensitivity (LD50),[1]; Renal Cell Carcinoma,> 500 micro-M
same,activity and appearance post-injection,[2],exhibited decreased activity and an apparent increase in sleep
same,"competitive inhibition of [3H]Leu-Leu-OMe uptake, in words",[3],competitively inhibited
same,inhibition at 250 µM,"[3]; Homo sapiens, unlabeled compound 250 microM, [3H]Leu-Leu-OMe 10 microM (Table 5)",72%
same,decrease in number of Lyt-2^+ spleen cells,[4]; [11],more than 65%
same,number of L3T4^+ cells,[4]; [11],no alteration in the number of L3T4^+ cells
same,loss of viable donor cells,[4]; immediately after treatment,< 5%
same,51Cr release,[5],no significant Leu-Leu-OMe induced ^51 Cr release
same,subsequent proliferative capacity,[5]; 500 micromolar,had no discernible effect on subsequent proliferative capacity
same,Leu--Leu--OMe Sensitivity (LD50),[5]; Endothelial Cells,> 500 micro-M
same,Cells stained with alpha-CD16,"[6]; single agent (Leu-Leu-OMe 250 micro-M or Gly-Phe-CHN2 10^-6 M), Nil 8.1",< 0.1
same,Cells stained with alpha-CD8,"[6]; single agent, Nil 18.8",7.0
same,Cells stained with alpha-CD4,"[6]; single agent, Nil 60.3",87.2
same,Km,[7]; 15 minute incubation at 22° C.,~100 µM
same,Vmax of uptake,[7]; 15 minute incubation at 22° C.,approximately 10^-10 moles/minute/10^6 cells
same,external concentration of near maximal uptake,[7]; 15 minute incubation at 22° C. (FIG. 11),250-500 micro-M
same,allocytotoxicity,[8],near total ablation of allocytotoxicity
same,Leu--Leu--OMe Sensitivity (LD50),[9],> 500 micro-M
same,"RBC lysis in the presence of purified DPPI, in words",[10],RBC lysis occurs
